These results are taken from paper PMC8312464, “Inhibition of heat shock proteins increases autophagosome formation, and reduces the expression of APP, Tau, SOD1 G93A and TDP-43” (Aging (Albany NY), 2021).

The target in one assay is T1, GRP78 (Homo sapiens, UniProt P11021).
T1 construct: gene HSPA5; GRP78 expressed from a plasmid in GBM12 cells, immuno-precipitated with an antibody to the COOH terminal portion
Put plainly: ATPase activity (ATP-lite luminescence) of immunoprecipitated GRP78 on Sepharose beads. It counts as biochemical.

A further assay has as its target T2, HSP90.
T2 construct: FLAG-tagged HSP90 expressed in GBM12 cells, immuno-precipitated by its tag
Kind of assay: ATPase activity (ATP-lite luminescence) of immunoprecipitated FLAG-HSP90 on Sepharose beads. Type of assay: biochemical. The source says: ATPase activity (ATP-lite luminescence) of immunoprecipitated FLAG-HSP90 on Sepharose beads on HSP90 | In a dose-dependent fashion AR12 inhibited the ATPase activities of HSP90, HSP70 and GRP78

T1 sequence (P11021 19-654): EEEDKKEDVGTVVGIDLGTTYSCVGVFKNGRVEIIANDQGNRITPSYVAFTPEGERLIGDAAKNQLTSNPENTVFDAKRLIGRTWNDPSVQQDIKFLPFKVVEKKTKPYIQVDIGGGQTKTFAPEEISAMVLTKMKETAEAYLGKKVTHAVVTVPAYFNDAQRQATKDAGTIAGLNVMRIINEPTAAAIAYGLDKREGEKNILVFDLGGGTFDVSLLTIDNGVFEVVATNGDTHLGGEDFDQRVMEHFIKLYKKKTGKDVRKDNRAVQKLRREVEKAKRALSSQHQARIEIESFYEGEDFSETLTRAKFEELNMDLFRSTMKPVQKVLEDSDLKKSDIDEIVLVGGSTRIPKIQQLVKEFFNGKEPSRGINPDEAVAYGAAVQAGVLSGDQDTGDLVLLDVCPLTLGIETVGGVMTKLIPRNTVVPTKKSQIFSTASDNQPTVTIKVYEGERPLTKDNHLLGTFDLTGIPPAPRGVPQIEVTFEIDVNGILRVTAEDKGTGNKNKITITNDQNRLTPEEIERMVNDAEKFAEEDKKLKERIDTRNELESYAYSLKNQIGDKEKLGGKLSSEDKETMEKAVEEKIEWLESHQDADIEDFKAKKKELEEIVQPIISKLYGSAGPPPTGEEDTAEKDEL

Turning to `NCC(=O)Nc1ccc(-n2nc(C(F)(F)F)cc2-c2ccc3c(ccc4ccccc43)c2)cc1` [AR12], the IC50 is approximately 80 nM at GRP78 and approximately 300 nM against HSP90.
